Results as given in US4382922A, “Peptides affecting gonadal function” (The Salk Institute for Biological Studies, priority 1982, dated 1983).
Values joined by “and” are separate entries in the source; they are usually repeats but may differ in a detail not shown here. Identical values can stand only once.

Tested on: dispersed rat pituitary cells
Type: cell-based
Settings: for Potency (relative to LRF): in vitro LH release, LRF = 1, confidence limits in parentheses
Method: The peptides prepared in the foregoing Example I are assayed in vitro using a four-day-old primary culture of dispersed rat pituitary cells and compared with LRF. The levels of LH secreted over a 4-hour period in response to the application of peptides are assayed by specific radioimmunoassay for rat LH. The results of testing are expressed in the tables herebelow: […]

| Structure (SMILES) | NANOGRAMS OF LH SECRETED/ml. 4 hr. | Potency (relative to LRF) |
| --- | --- | --- |
| CC(C)C[C@H](NC(=O)CNC(=O)[C@H](Cc1ccc(O)cc1)NC(=O)[C@H](CO)NC(=O)[C@H](Cc1c[nH]c2ccccc12)NC(=O)[C@H](Cc1c[nH]cn1)NC(=O)[C@@H]1CCC(=O)N1)C(=O)N[C@@H](CCCNC(=N)N)C(=O)N1CCC[C@H]1C(=O)NCC(N)=O [LRF, p-Glu-His-Trp-Ser-Tyr-Gly-Leu-Arg-Pro-Gly-NH2, reference compound] | 898 and 1240 and 1702 |  |
| CCNC(=O)[C@@H]1CCCN1C(=O)[C@H](CCCNC(=N)N)NC(=O)[C@H](CC(C)C)NC(=O)[C@@H](Cc1ccc(OC)cc1)NC(=O)[C@H](Cc1ccc(O)cc1)NC(=O)[C@H](CO)NC(=O)[C@H](Cc1c[nH]c2ccccc12)NC(=O)[C@H](Cc1c[nH]cn1)NC(=O)[C@@H]1CCC(=O)N1 [Peptide No. 2, [OCH3 -D-Phe^6, Pro^9 -NEt]-LRF] |  | 130(72-242) |
| CCNC(=O)[C@@H]1CCCN1C(=O)[C@H](CCCNC(=N)N)NC(=O)[C@H](CC(C)C)NC(=O)[C@@H](Cc1c(C)c(C)c(C)c(C)c1C)NC(=O)[C@H](Cc1ccc(O)cc1)NC(=O)[C@H](CO)NC(=O)[C@H](Cc1c[nH]c2ccccc12)NC(=O)[C@H](Cc1c[nH]cn1)NC(=O)[C@@H]1CCC(=O)N1 [Peptide No. 7, [pentamethyl-D-Phe^6, Pro^9 -NEt]-LRF] |  | 86(50-145) |
| CCNC(=O)[C@@H]1CCCN1C(=O)[C@H](CCCNC(=N)N)NC(=O)[C@H](CC(C)C)NC(=O)[C@@H](Cc1ccc(OC)cc1)NC(=O)[C@H](Cc1ccc(O)cc1)NC(=O)[C@H](CO)NC(=O)[C@H](Cc1c[nH]c2ccccc12)NC(=O)[C@H](Cc1c[nH]cn1)NC(=O)[C@@H]1CCC(=O)N1 [[OCH3 -D-Phe^6, Pro^9 -NEt]-LRF] |  | about 130 |
| CCNC(=O)[C@@H]1CCCN1C(=O)[C@H](CCCNC(=N)N)NC(=O)[C@H](CC(C)C)NC(=O)[C@@H](Cc1c(C)c(C)c(C)c(C)c1C)NC(=O)[C@H](Cc1ccc(O)cc1)NC(=O)[C@H](CO)NC(=O)[C@H](Cc1c[nH]c2ccccc12)NC(=O)[C@H](Cc1c[nH]cn1)NC(=O)[C@@H]1CCC(=O)N1 [[pentamethyl-D-Phe^6, Pro^9 -NEt]-LRF] |  | about 86 |
| CCNC(=O)[C@@H]1CCCN1C(=O)[C@H](CCCNC(=N)N)NC(=O)[C@H](CC(C)C)NC(=O)[C@@H](Cc1ccc([N+](=O)[O-])cc1)NC(=O)[C@H](Cc1ccc(O)cc1)NC(=O)[C@H](CO)NC(=O)[C@H](Cc1c[nH]c2ccccc12)NC(=O)[C@H](Cc1c[nH]cn1)NC(=O)[C@@H]1CCC(=O)N1 [compound 1, [pNO2 -D-Phe^6, Pro^9 -NEt]-LRF] |  | 141 (83-297) |
| CCNC(=O)[C@@H]1CCCN1C(=O)[C@H](CCCNC(=N)N)NC(=O)[C@H](CC(C)C)NC(=O)[C@@H](Cc1ccc(C)cc1)NC(=O)[C@H](Cc1ccc(O)cc1)NC(=O)[C@H](CO)NC(=O)[C@H](Cc1c[nH]c2ccccc12)NC(=O)[C@H](Cc1c[nH]cn1)NC(=O)[C@@H]1CCC(=O)N1 [compound 3] |  | 143 (79-268) |
| CCNC(=O)[C@@H]1CCCN1C(=O)[C@H](CCCNC(=N)N)NC(=O)[C@H](CC(C)C)NC(=O)[C@@H](Cc1ccc(Cl)cc1)NC(=O)[C@H](Cc1ccc(O)cc1)NC(=O)[C@H](CO)NC(=O)[C@H](Cc1c[nH]c2ccccc12)NC(=O)[C@H](Cc1c[nH]cn1)NC(=O)[C@@H]1CCC(=O)N1 [compound 4] |  | 59 (29-120) |
| CCNC(=O)[C@@H]1CCCN1C(=O)[C@H](CCCNC(=N)N)NC(=O)[C@H](CC(C)C)NC(=O)[C@@H](Cc1ccc(Cl)c(Cl)c1)NC(=O)[C@H](Cc1ccc(O)cc1)NC(=O)[C@H](CO)NC(=O)[C@H](Cc1c[nH]c2ccccc12)NC(=O)[C@H](Cc1c[nH]cn1)NC(=O)[C@@H]1CCC(=O)N1 [compound 5] |  | 38 (16-82) |
| CCNC(=O)[C@@H]1CCCN1C(=O)[C@H](CCCNC(=N)N)NC(=O)[C@H](CC(C)C)NC(=O)[C@@H](Cc1ccc(NC(C)=O)cc1)NC(=O)[C@H](Cc1ccc(O)cc1)NC(=O)[C@H](CO)NC(=O)[C@H](Cc1c[nH]c2ccccc12)NC(=O)[C@H](Cc1c[nH]cn1)NC(=O)[C@@H]1CCC(=O)N1 [compound 6] |  | 36 (21-69) |
| CCNC(=O)[C@@H]1CCCN1C(=O)[C@H](CCCNC(=N)N)NC(=O)[C@H](CC(C)C)NC(=O)[C@@H](Cc1ccccc1)NC(=O)[C@H](Cc1ccc(O)cc1)NC(=O)[C@H](CO)NC(=O)[C@H](Cc1c[nH]c2ccccc12)NC(=O)[C@H](Cc1c[nH]cn1)NC(=O)[C@@H]1CCC(=O)N1 [compound 8] |  | 78 (46-132) |
